Reference: patent publication US12427180B2, “Treatment of respiratory tract diseases and infections with ascorbic acid compositions” (RENOVION, INC., priority 2016, dated 2025)

What was measured:
[1] = Stability: oxidized glutathione and reduced ascorbic acid after storage; assay type: physicochemical; details: ascorbic acid only, pH not given; Ambient; stored at 5° C. for 4 weeks
Description: The amount of glutathione and ascorbic acid oxidiation were determined for Composition 1 at pH 5.5, 6.0, and 6.5. Oxidized glutathione is associated with the generation of protein-carbonyls via glutathionlyation, which occurs when oxidized glutathione dissociates and attaches to proteins. The % oxidized glutathione (% GSSG) was determined after 4 weeks of storage of Composition 1 at pH 5.5, 6.0, and 6.5 under N2-sparged and ambient conditions. Additionally, when ascorbic acid is oxidized into dehydroascorbate (DHA), DHA can break down and result in the formation of protein adducts in process called ascorbylation (Simpson et al., Biochim biophys Acta 2000; 1501:12-24). The % reduced ascorbic acid maintained in Composition 1 (% ASC) was determined after 4 weeks of storage of Composition 1 at pH 5.5, 6.0, and 6.5 under N2-sparged (anaerobic) and ambient conditions. Specifically, nitrogen-sparged samples were mixed under anaerobic conditions sparged with nitrogen, and the samples were packaged using nitrogen bubbling. Ambient samples were mixed under room air conditions and were not bubbled with nitrogen. The formulations were stored at 5° C. for 4 weeks, and the percent of oxidized glutathione (GSSG) and ascorbic acid (ASC) was measured for each sample according to standard techniques.

[2] = tested on: Pa UAB-NM-1 (nonmucoidy P. aeruginosa clinical isolate from lung); assay: MIC against Pa UAB-NM-1; assay type: cell-based, Pseudomonas aeruginosa; details: Anaerobic (+nitrate), 12 hrs
Description: (§1) The MICs of Composition 1 (glutathione, ascorbic acid, and HCO3); glutathione and ascorbic acid; and HCO3 were tested against clinical isolates, including Burkholderia cepacia, Pseudomonas aeruginosa (Schroeter) Migula (ATCC 27853), Pseudomonas aeruginosa (Schroeter) Migula (ATCC 9027), Pseudomonas aeruginosa (Schroeter) Migula (ATCC BAA-2114), Klebsiella pneumonia, methicillin resistant Staphylococcus aureus; laboratory strains of Moraxella catarrhalis, Stenotrophomonas maltophilia, Acinetobacter baumannii; and eight samples of mucoid and nonmucoid Pseudomonas aeruginosa clinical isolates from human lung. The MIC for laboratory clinical isolate Pseudomonas aeruginosa (Schroeter) Migula (ATCC BAA-47 (PAO1)) was also tested. The MICs were determined under anaerobic conditions on media supplemented with nitrate, under aerobic conditions supplemented with nitrate, or under ambient conditions.
(§2) The clinical isolates were inoculated in duplicate on agar plates overnight under anaerobic conditions at 36° C.±1.0° C. in a 96-well plate. Laboratory isolates of Burkholderia cepacia were also grown in duplicate overnight under aerobic conditions at 36° C.±1.0° C. in a 96-well plate. […] MICs were determined via visual inspection and OD620.

[3] = tested on: Pa UAB-NM-3 (nonmucoidy P. aeruginosa clinical isolate from lung); assay: MIC against Pa UAB-NM-3; assay type: cell-based, Pseudomonas aeruginosa; details: Anaerobic (+nitrate), 12 hrs
Description: as §1, §2

[4] = tested on: Pseudomonas aeruginosa (Schroeter) Migula (ATCC BAA-47 (PAO1)); assay: MIC against Pa BAA-47 (PAO1); assay type: cell-based; details: Anaerobic (+nitrate), 12 hrs
Description: as §1, §2

[5] = tested on: Pa UAB-NM-5 (nonmucoidy P. aeruginosa clinical isolate from lung); assay: MIC against Pa UAB-NM-5; assay type: cell-based, Pseudomonas aeruginosa; details: Anaerobic (+nitrate), 12 hrs
Description: as §1, §2

MRSA UAB-3 = assay: MIC against MRSA UAB-3; assay type: cell-based, Staphylococcus aureus; details: Anaerobic (+nitrate), 12 hrs
Description: as §1, §2

MRSA UAB-1 = assay: MIC against MRSA UAB-1; assay type: cell-based, Staphylococcus aureus; details: Anaerobic (+nitrate), 12 hrs
Description: as §1, §2

[6] = tested on: Pa UAB-M-2 (mucoidy P. aeruginosa clinical isolate from lung); assay: MIC against Pa UAB-M-2; assay type: cell-based, Pseudomonas aeruginosa; details: Anaerobic (+nitrate), 12 hrs
Description: as §1, §2

Row | Compound | % ASC (reduced ascorbic acid maintained) [1] [%] | MIC [2] | MIC [3] | MIC [4] | MIC [5] | MIC (MRSA UAB-3) | MIC (MRSA UAB-1) | MIC [6]
1 | O=C1O[C@H]([C@@H](O)CO)C(O)=C1O [Ascorbic Acid Only, ascorbic acid] | 77.88 | – | – | – | – | – | – | –
2 | O=C([O-])O.[Na+] [HCO3, sodium bicarbonate] | – | 12.5%(12 | 12.5% (12 | 12.5% (12 | 12.5% (12 | 25% (12 | 25% (12 | 12.5%(12
